Test results reported in patent US20250230193A1, “CYCLIC COMPOUND HAVING SELECTIVE KRAS INHIBITORY EFFECT ON HRAS AND NRAS” (CHUGAI SEIYAKU KABUSHIKI KAISHA, priority 2022, published 2025).
Where a SMILES comes first, the peptide text is derived from it. Bridges are numbered along the chain shown (N, C = ends). [ ]: non-standard residue; d: D form. The star is where a group is joined. hPhe(3-Cl-4-CF3) = N[C@@H](CCc1ccc(C(F)(F)F)c(Cl)c1)C(=O)O; NPrPhe(4-CF3) = CCCN[C@@H](Cc1ccc(C(F)(F)F)cc1)C(=O)O; NMeGly(cPent) = CN[C@H](C(=O)O)C1CCCC1; NMeChg = CN[C@H](C(=O)O)C1CCCCC1; NMeI = CC[C@H](C)[C@H](NC)C(=O)O; NMeD = CN[C@@H](CC(=O)O)C(=O)O; Ac4c(3-oxa) = NC1(C(=O)O)COC1; NMeL = CN[C@@H](CC(C)C)C(=O)O; NMeAbu = CC[C@H](NC)C(=O)O; NMeS = CN[C@@H](CO)C(=O)O; Morpholide = C1CN(*)CCO1; NMeA = CN[C@@H](C)C(=O)O; Piperidide = C1CCN(*)CC1; Ac5c = NC1(C(=O)O)CCCC1; Ac4c = NC1(C(=O)O)CCC1; Sar = CNCC(=O)O

Columns and labels:
[1] = molecular target: GDP-bound HRAS wild-type protein (Homo sapiens, UniProt P01112); experiment: Binding to HRAS by surface plasmon resonance (SPR), Single Cycle Kinetics; details: KD ratio, GDP-bound HRAS wild-type vs GDP-bound KRAS wild-type, SPR
[2] = molecular target: GDP-bound NRAS wild-type protein (Homo sapiens, UniProt P01111); experiment: Binding to NRAS by surface plasmon resonance (SPR), Single Cycle Kinetics; details: KD ratio, GDP-bound NRAS wild-type vs GDP-bound KRAS wild-type, SPR
Sequence of GDP-bound NRAS wild-type protein (P01111 whole entry): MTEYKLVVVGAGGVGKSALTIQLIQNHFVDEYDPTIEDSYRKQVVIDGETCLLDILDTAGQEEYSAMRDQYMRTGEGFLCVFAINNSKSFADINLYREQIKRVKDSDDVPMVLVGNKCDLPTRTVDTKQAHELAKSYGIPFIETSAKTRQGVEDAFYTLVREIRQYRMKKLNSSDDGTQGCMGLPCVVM

Sequence of GDP-bound HRAS wild-type protein (P01112 whole entry): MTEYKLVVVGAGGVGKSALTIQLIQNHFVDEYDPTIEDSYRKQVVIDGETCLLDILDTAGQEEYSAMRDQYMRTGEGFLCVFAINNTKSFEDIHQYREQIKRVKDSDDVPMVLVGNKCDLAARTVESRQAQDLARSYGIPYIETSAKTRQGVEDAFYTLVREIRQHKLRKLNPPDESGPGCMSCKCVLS

SMILES | HRAS/KRAS (ratio of KD value for HRAS to KD value for KRAS) [1] | NRAS/KRAS (ratio of KD value for NRAS to KD value for KRAS) [2]
CCCN1C(=O)CN(C)C(=O)CN(C)C(=O)[C@H]([C@@H](C)CC)NC(=O)[C@H](CC(C)C)N(C)C(=O)C[C@@H](C(=O)N2CCOCC2)N(C)C(=O)[C@H](C2CCCC2)N(C)C(=O)C2(CCC2)NC(=O)[C@H](C)N(C)C(=O)[C@H](CCc2ccc(C(F)(F)F)c(Cl)c2)NC(=O)CN(C)C(=O)[C@@H]1Cc1ccc(C(F)(F)F)cc1 [PP1916] ([NMeL]I[Sar][Sar][NPrPhe(4-CF3)][Sar][hPhe(3-Cl-4-CF3)][NMeA][Ac4c][NMeGly(cPent)][NMeD]-Morpholide; lactam N-11) | C (A compound having a KD ratio of 0.1 or more and less than 3 is denoted as C) | B (a compound having 3 or more and less than 10 is denoted as B)
CCCN(C)C(=O)[C@@H]1CC(=O)N(C)[C@@H](CC(C)C)C(=O)N[C@@H]([C@@H](C)OC)C(=O)N(C)CC(=O)N(C)[C@H]2C/C=C\CCN(C2=O)[C@@H](Cc2ccc(C(F)(F)F)cc2)C(=O)N(C)CC(=O)N[C@@H](CCc2cc(F)c(C(F)(F)F)c(F)c2)C(=O)N2C[C@H](OCC)C[C@H]2C(=O)NC2(CC(C)(C)C2)C(=O)N(C)[C@@H](C2CCCC2)C(=O)N1C [PP1917] | A (a compound having 10 or more and less than 20 is denoted as A) | A (a compound having 10 or more and less than 20 is denoted as A)
CCCN1C(=O)CN(C)C(=O)CN(C)C(=O)[C@H]([C@@H](C)CC)NC(=O)[C@H](CC(C)C)N(C)C(=O)C[C@@H](C(=O)N2CCOCC2)N(C)C(=O)[C@H](C2CCCC2)N(C)C(=O)C2(CCC2)NC(=O)[C@H](CC)N(C)C(=O)[C@H](CCc2ccc(C(F)(F)F)c(Cl)c2)NC(=O)CN(C)C(=O)[C@@H]1Cc1ccc(C(F)(F)F)cc1 [PP1918] ([NMeL]I[Sar][Sar][NPrPhe(4-CF3)][Sar][hPhe(3-Cl-4-CF3)][NMeAbu][Ac4c][NMeGly(cPent)][NMeD]-Morpholide; lactam N-11) | C (A compound having a KD ratio of 0.1 or more and less than 3 is denoted as C) | B (a compound having 3 or more and less than 10 is denoted as B)
CCO[C@@H]1C[C@H]2C(=O)NC3(CC(C)(C)C3)C(=O)N(C)[C@@H](C3CCCC3)C(=O)N(C)[C@H](C(=O)N(C)CC)CC(=O)N(C)[C@@H](CC(C)C)C(=O)N[C@@H]([C@@H](C)OCC)C(=O)N(C)CC(=O)N(C)[C@H]3C/C=C\CCN(C3=O)[C@@H](Cc3ccc(C(F)(F)F)cc3)C(=O)N(C)CC(=O)N[C@@H](CCc3cc(F)c(C(F)(F)F)c(F)c3)C(=O)N2C1 [PP1919] | A (a compound having 10 or more and less than 20 is denoted as A) | A (a compound having 10 or more and less than 20 is denoted as A)
CCCN1C(=O)CN(C)C(=O)CN(C)C(=O)[C@H]([C@@H](C)CC)NC(=O)[C@H](CC(C)C)N(C)C(=O)C[C@@H](C(=O)N2CCOCC2)N(C)C(=O)[C@H](C2CCCC2)N(C)C(=O)C2(CCCC2)NC(=O)[C@H](COC)N(C)C(=O)[C@H](CCc2ccc(C(F)(F)F)c(Cl)c2)NC(=O)CN(C)C(=O)[C@@H]1Cc1ccc(C(F)(F)F)cc1 [PP1920] ([NMeL]I[Sar][Sar][NPrPhe(4-CF3)][Sar][hPhe(3-Cl-4-CF3)][NMeS](Me)[Ac5c][NMeGly(cPent)][NMeD]-Morpholide; lactam N-11) | C (A compound having a KD ratio of 0.1 or more and less than 3 is denoted as C) | B (a compound having 3 or more and less than 10 is denoted as B)
CCCO[C@H](C)[C@@H]1NC(=O)[C@H](CC(C)C)N(C)C(=O)C[C@@H](C(=O)N(C)C)N(C)C(=O)[C@H](C2CCCC2)N(C)C(=O)C2(CC(C)(C)C2)NC(=O)[C@@H]2C[C@@H](OCC)CN2C(=O)[C@H](CCc2cc(F)c(C(F)(F)F)c(F)c2)NC(=O)CN(C)C(=O)[C@H](Cc2ccc(C(F)(F)F)cc2)N2CC/C=C\C[C@@H](C2=O)N(C)C(=O)CN(C)C1=O [PP1921] | A (a compound having 10 or more and less than 20 is denoted as A) | A (a compound having 10 or more and less than 20 is denoted as A)
CCCN1C(=O)CN(C)C(=O)CN(C)C(=O)[C@H]([C@@H](C)CC)NC(=O)[C@H](CC(C)C)N(C)C(=O)C[C@@H](C(=O)N2CCOCC2)N(C)C(=O)[C@H](C2CCCC2)N(C)C(=O)C2(COC2)NC(=O)[C@@H]2CCCN2C(=O)[C@H](CCc2ccc(C(F)(F)F)c(Cl)c2)NC(=O)CN(C)C(=O)[C@@H]1Cc1ccc(C(F)(F)F)cc1 [PP1922] ([NMeL]I[Sar][Sar][NPrPhe(4-CF3)][Sar][hPhe(3-Cl-4-CF3)]P[Ac4c(3-oxa)][NMeGly(cPent)][NMeD]-Morpholide; lactam N-11) | C (A compound having a KD ratio of 0.1 or more and less than 3 is denoted as C) | B (a compound having 3 or more and less than 10 is denoted as B)
CCCN(C)C(=O)[C@@H]1CC(=O)N(C)[C@@H](CC(C)C)C(=O)N[C@@H](C2CCOCC2)C(=O)N(C)CC(=O)N(C)[C@H]2C/C=C\CCN(C2=O)[C@@H](Cc2ccc(C(F)(F)F)cc2)C(=O)N(C)CC(=O)N[C@@H](CCc2cc(F)c(C(F)(F)F)c(F)c2)C(=O)N2C[C@H](OCC)C[C@H]2C(=O)NC2(CC(C)(C)C2)C(=O)N(C)[C@@H](C2CCCC2)C(=O)N1C [PP1923] | A (a compound having 10 or more and less than 20 is denoted as A) | A (a compound having 10 or more and less than 20 is denoted as A)
CCC[C@H]1C(=O)N[C@@H]([C@@H](C)CC)C(=O)N2CC[C@H]2C(=O)N(C)[C@H]2C/C=C\CCN(C2=O)[C@@H](Cc2ccc(C(F)(F)F)cc2)C(=O)N(C)CC(=O)N[C@@H](CCc2cc(F)c(C(F)(F)F)c(F)c2)C(=O)N2C[C@H](OCC)C[C@H]2C(=O)NC2(CC(C)(C)C2)C(=O)N(C)[C@@H](C2CCCC2)C(=O)N(C)[C@H](C(=O)N(C)C)CC(=O)N1C [PP1925] | A (a compound having 10 or more and less than 20 is denoted as A) | A (a compound having 10 or more and less than 20 is denoted as A)
CCCN1C(=O)CN(C)C(=O)CN(C)C(=O)[C@H]([C@@H](C)CC)NC(=O)[C@H](CC(C)C)N(C)C(=O)C[C@@H](C(=O)N2CCOCC2)N(C)C(=O)[C@H]([C@@H](C)CC)N(C)C(=O)C2(CCCC2)NC(=O)[C@@H]2CCCN2C(=O)[C@H](CCc2ccc(C(F)(F)F)c(Cl)c2)NC(=O)CN(C)C(=O)[C@@H]1Cc1ccc(C(F)(F)F)cc1 [PP1926] ([NMeL]I[Sar][Sar][NPrPhe(4-CF3)][Sar][hPhe(3-Cl-4-CF3)]P[Ac5c][NMeI][NMeD]-Morpholide; lactam N-11) | B (a compound having 3 or more and less than 10 is denoted as B) | B (a compound having 3 or more and less than 10 is denoted as B)
CCC[C@H]1C(=O)N[C@@H]([C@@H](C)CC)C(=O)N[C@@H](C)C(=O)N(C)[C@H]2C/C=C\CCN(C2=O)[C@@H](Cc2ccc(C(F)(F)F)cc2)C(=O)N(C)CC(=O)N[C@@H](CCc2cc(F)c(C(F)(F)F)c(F)c2)C(=O)N2C[C@H](OCC)C[C@H]2C(=O)NC2(CC(C)(C)C2)C(=O)N(C)[C@@H](C2CCCC2)C(=O)N(C)[C@H](C(=O)N(C)C)CC(=O)N1C [PP1927] | A (a compound having 10 or more and less than 20 is denoted as A) | A (a compound having 10 or more and less than 20 is denoted as A)
CCCN1C(=O)CN(C)C(=O)CN(C)C(=O)[C@H]([C@@H](C)CC)NC(=O)[C@H](CC(C)C)N(C)C(=O)C[C@@H](C(=O)N2CCOCC2)N(C)C(=O)[C@H](C2CCCCC2)N(C)C(=O)C2(CCC2)NC(=O)[C@@H]2CCCN2C(=O)[C@H](CCc2ccc(C(F)(F)F)c(Cl)c2)NC(=O)CN(C)C(=O)[C@@H]1Cc1ccc(C(F)(F)F)cc1 [PP1928] ([NMeL]I[Sar][Sar][NPrPhe(4-CF3)][Sar][hPhe(3-Cl-4-CF3)]P[Ac4c][NMeChg][NMeD]-Morpholide; lactam N-11) | B (a compound having 3 or more and less than 10 is denoted as B) | B (a compound having 3 or more and less than 10 is denoted as B)
CCCN1C(=O)CN(C)C(=O)CN(C)C(=O)[C@H]([C@@H](C)CC)NC(=O)[C@H](CC(C)C)N(C)C(=O)C[C@@H](C(=O)N2CCCCC2)N(C)C(=O)[C@H](C2CCCC2)N(C)C(=O)C2(CCC2)NC(=O)[C@@H]2CCCN2C(=O)[C@H](CCc2ccc(C(F)(F)F)c(Cl)c2)NC(=O)CN(C)C(=O)[C@@H]1Cc1ccc(C(F)(F)F)cc1 [PP1930] ([NMeL]I[Sar][Sar][NPrPhe(4-CF3)][Sar][hPhe(3-Cl-4-CF3)]P[Ac4c][NMeGly(cPent)][NMeD]-Piperidide; lactam N-11) | C (A compound having a KD ratio of 0.1 or more and less than 3 is denoted as C) | B (a compound having 3 or more and less than 10 is denoted as B)
CCO[C@@H]1C[C@H]2C(=O)NC3(CC(C)(C)C3)C(=O)N(C)[C@@H](C3CCCC3)C(=O)N(C)[C@H](C(=O)N(C)C)CC(=O)N(C)[C@@H](CC(C)C)C(=O)N[C@@H]([C@@H](C)CC)C(=O)N(C)CC(=O)N(C)[C@H]3C/C=C\CCN(C3=O)[C@@H](Cc3ccc(C(F)(F)F)cc3)C(=O)N(C)CC(=O)N[C@@H](CCc3ccc(C(F)(F)F)c(F)c3)C(=O)N2C1 [PP1931] | B (a compound having 3 or more and less than 10 is denoted as B) | A (a compound having 10 or more and less than 20 is denoted as A)
CCC[C@H]1C(=O)N[C@@H]([C@@H](C)CC)C(=O)N(C)CC(=O)N(C)[C@H]2C/C=C\CCN(C2=O)[C@@H](Cc2ccc(C(F)(F)F)cc2)C(=O)N(C)CC(=O)N[C@@H](CCc2ccc(Cl)c(Cl)c2)C(=O)N2C[C@H](OCC)C[C@H]2C(=O)NC2(CC(C)(C)C2)C(=O)N(C)[C@@H](C2CCCC2)C(=O)N(C)[C@H](C(=O)N(C)C)CC(=O)N1C [PP1932] | A (a compound having 10 or more and less than 20 is denoted as A) | A (a compound having 10 or more and less than 20 is denoted as A)
